Source: paper PMC12154426, “TPP-Based Nanovesicles Kill MDR Neuroblastoma Cells and Induce Moderate ROS Increase, While Exerting Low Toxicity Towards Primary Cell Cultures: An In Vitro Study” (International Journal of Molecular Sciences, 2025)
Like-named read-outs stand apart in the source and are kept apart here.

Tests used:
HTLA 230 = test: MTS cell viability assay on HTLA 230 NB cells; assay type: cell-based, human; details: for cytotoxic effects vs. HTLA 230 higher than vs. HTLA ER: from IC50 values
Experimental: In this section, the strong anticancer effect of BPPB against ETO-sensitive HTLA 230 and multidrug-resistant (MDR) HTLA ER neuroblastoma (NB) cells previously reported was confirmed. Cell viability in HTLA 230 and HTLA ER cells exposed to increasing concentrations of BPPB for 24, 48, and 72 h was assessed by using the MTS essay, which is an efficient, eco- and user-friendly tool, commonly used to investigate the behaviour of cancer cells when exposed to specific treatments and how these treatments influence their growth and viability.
Following this, µM concentrations (x) were transformed in Log10 (x) (Figure 1e (HTLA 230) and Figure 1f (HTLA ER), traces with indicators and error bar). The nonlinear regression models of the Log10 (BPPB concentrations) vs. the normalized response (Hill Slope) shown in Figure 1e (HTLA 230) and Figure 1f (HTLA ER), traces without indicators, elaborated by GraphPad Prism software version 8.0.1 (GraphPad Software, Boston, MA, USA), gave us the IC50 values of BPPB for both cell populations at 24, 48, and 72 h of treatment.
HTLA 230 is a MYCN-amplified human stage-IV NB cell line, obtained from the G. Gaslini Institute, Genoa, Italy. The cytogenetic features of the HTLA 230 cell line include […] MYCN amplification, del(11)t(11;Y), balanced translocation t(1;17)(p36;q21), and dup(11p), which were previously described by Pezzolo et al.. Cells were periodically tested for mycoplasma contamination (Mycoplasma Reagent Set, Aurogene s.p.a, Pavia, Italy). After thawing and eight passages in the culture, cell morphology and proliferation were analyzed. […] Both cell populations were cultured in RPMI 1640 (Euroclone SpA, Pavia, Italy) supplemented with 10% fetal bovine serum (FBS; Euroclone, Pavia, Italy), 2 mM glutamine (Euroclone, Pavia, Italy), 1% penicillin/streptomycin (Euroclone, Pavia, Italy), 1% sodium pyruvate (Sigma-Aldrich, Sant Louis, MO, USA), and 1% amino acid solution (Sigma).
To determine the cytotoxic effects of BPPB, in vitro time- and dose-dependent experiments were carried out, as recently described. Briefly, cells were treated for 24, 48, and 72 h, with increasing concentrations (0.1–2.0 µM) of the compound. […] Cell cultures were carefully monitored before and during the experiments to ensure optimal cell density.
Cell viability was determined by using the CellTiter 96® AQueous One Solution Cell Proliferation MTS Assay (Promega, Madison, WI, USA), as previously described. MTS is a colorimetric method commonly used for determining cell viability. The cell survival rate, expressed as the cell viability percentage (%), was evaluated based on the experimental outputs of treated cells vs. the untreated ones (CTRs), and was calculated as follows: cell viability (%) = (OD treated cells − OD blank)/(OD untreated cells − OD blank) × 100%. IC50 values were calculated by GraphPad Prism 8.0.1 Software (GraphPad Software v8.0, San Diego, CA, USA), as detailed in the Results and Discussion in Section 2.

HTLA ER = test: DCFH assay of ROS (H2O2) production, HTLA ER; assay type: cell-based, human
Excerpt: It has been reported that the administration of TPP-based compounds, including TPP-based bola amphiphilic nanovesicles such as BPPB, induce ROS overproduction, thus causing oxidative stress (OS), which has been widely reported to be involved in the anticancer effect of several chemotherapeutic drugs, including etoposide, doxorubicin [38], and cisplatin [39]. […] On the contrary, the role of ROS was scarcely present in PLX-resistant CMM cells exposed to the same concentrations of BPPB [13]. With these considerations, we evaluated ROS levels also in NB cells treated with BPPB, since this experiment would have been particularly helpful to understand whether (i) these nanovesicles’ preparation exerts its cytotoxic action on HTLA 230 and ER cells through ROS production, as in PLX-sensitive CMM cells; or (ii) the resistance acquired by HTLA ER based on high levels of antioxidants, following chronic treatment with etoposide, conferred resistance also to a preparation based on the use of nanovesicles (BPPBs). Moreover, the evaluation of ROS levels can be an indirect method to ascertain and confirm the presence of apoptosis, since as reported, low levels of ROS induce apoptosis and high levels induce necrosis.Therefore, to investigate the pro-oxidant action of BPPB also in HTLA 230 and HTLA ER NB cells, ROS levels were evaluated in both NB cell populations exposed for 24–72 h to increasing concentrations (0.1–2 µM) of BPPB using the DCFH essay (Figure 4). The results were reported as a percentage of cells positive to DCFH normalized for protein content. Raw fluorescence data are, in fact, not applicable since an increase in fluorescence could be due to a high number of cells but also to an increased production of H2O2 induced by the treatments. This is the reason why it is necessary to normalize the fluorescence data to the protein content. Other cellular assays measuring oxidative damage, including lipid peroxidation or protein carbonylation, are likely too complex for low-tier early hazard assessment or hazard screening. Conversely, the cellular DCFH assay is a simpler and widely used alternative, which measures intracellular ROS production by forming a fluorescent product (DCF) upon oxidation by free radicals produced by cells.
The production of H2O2 was evaluated using 2′-7′-dichlorofluorescein-diacetate (DCFH-DA; Merk Life Science S.r.l. Milan, Italy), as previously reported. Briefly, NB cells (10^4 cells/well) were seeded in 96-well plates (Corning) and treated. Then, cells were stained with 2′-7′ di-chloro-fluorescein-diacetate (DCFH-DA; Sigma-Aldrich) and incubated with 90% DMSO for an additional 10 min in the dark. The generated fluorescence intensity was monitored with a Perkin Elmer fluorometer (Perkin Elmer Life and Analytical Sciences, Shelton, WA, USA) at 485/530 nm excitation/emission. Values were normalized to the protein content.

c1ccc([P+](CCCCCCCCCCCC[P+](c2ccccc2)(c2ccccc2)c2ccccc2)(c2ccccc2)c2ccccc2)cc1 [BPPB, 1,1-(1,12-dodecanediyl)-bis-[1,1,1]-triphenyl phosphonium di-bromide]
cell viability (HTLA 230; 0.25 µM, 72 h): 47.6%
cell viability (HTLA 230; 0.5 µM, 48 h): 41.8%
cell viability (HTLA 230; 0.75 µM, 24 h): 42.5%
concentration causing significant reduction in cells' viability (HTLA 230; 24 h): ≥ 0.5 µM
cell viability (HTLA 230; 24 h, concentrations ≥ 0.75 µM up to 2 µM): 39.3–45.3%
cytotoxic effects vs. HTLA 230 higher than vs. HTLA ER (HTLA 230; 24 h): 25.3%
IC50 (HTLA 230; 24 h exposure, 0.1–2 µM, read-out: IC50 HTLA 230): 0.926 ± 0.164 µM
concentration causing significant reduction in cells' viability (HTLA 230; 48 h): ≥ 0.1 µM
cell viability (HTLA 230; 48 h, concentrations ≥ 0.5 µM up to 2 µM): 36.2–41.9%
cytotoxic effects vs. HTLA 230 higher than vs. HTLA ER (HTLA 230; 48 h): 65.9%
IC50 (HTLA 230; 48 h exposure, 0.1–2 µM, read-out: IC50 HTLA 230): 0.462 ± 0.103 µM
concentration causing significant reduction in cells' viability (HTLA 230; 72 h): ≥ 0.25 µM
cytotoxic effects vs. HTLA 230 higher than vs. HTLA ER (HTLA 230; 72 h): 67.5%
cell viability (HTLA 230; 72 h, lowest value reached with increasing concentrations (up to 2 µM)): 21.7%
IC50 (HTLA 230; 72 h exposure, 0.1–2 µM, read-out: IC50 HTLA 230): 0.389 ± 0.0836 µM
more cytotoxic than TiO2-Ta nanoparticles (HTLA 230; HTLA 230 and HTLA ER vs. SH-SY5Y, 24 h): 64–86 fold
anticancer effects higher than compound 3 with PDT/SDT (HTLA 230; HTLA 230 and HTLA ER, 24 h): 10.3–14.7 times
more potent than Ag20Pep (HTLA 230; HTLA 230 and HTLA ER, 24 h): 105–143 times
more potent than Ag40Pep (HTLA 230; HTLA 230 and HTLA ER, 24 h): 132–182 times
more potent than Ag20Pep (HTLA 230; HTLA 230 and HTLA ER, 48 h): 18–54 times
more potent than Ag40Pep (HTLA 230; HTLA 230 and HTLA ER, 48 h): 29–90 times
cytotoxicity higher than that of compounds 9–13 of Skrzypczak et al. (HTLA 230; HTLA 230 and HTLA ER, 72 h): 1.7–5.1 fold
more cytotoxic than AgNPs (HTLA 230; HTLA 230 and HTLA ER, 72 h): 4–30 times
IC50 (HTLA 230; over 24, 48, 72 h exposure, read-out: IC50 values towards drug-sensitive HTLA 230): 0.4 to 0.9 µM
concentration significantly inducing ROS overproduction (HTLA ER; 24 h): 1.25 µM
concentrations that did not induce significant changes in ROS levels (HTLA ER; 24 h): ≤ 1 µM
highest value of DCFH-positive cells (HTLA ER; 24 h, normalized for protein content, control = 1): 4.92
increase in ROS with respect to the control (HTLA ER; 24 h exposure): > 4 times
concentrations that did not induce significant changes in ROS levels (HTLA ER; 48 h): ≤ 1.25 µM
highest value of DCFH-positive cells (HTLA ER; 48 h, normalized for protein content, control = 1): 3.67
concentrations that did not induce significant changes in ROS levels (HTLA ER; 72 h): ≤ 0.75 µM
maximal DCFH value in HTLA ER lower than in HTLA 230 (HTLA ER; 72 h): 1.16 times
maximal value of DCFH-positive cells (HTLA ER; 72 h, normalized for protein content, control = 1): 4.99
